Assay results: PubChem BioAssay (NCI)
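48-hour exposure; five concentrations; linearly interpolated endpoints. TGI denotes the concentration required for complete inhibition of growth.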

Key:
Test in all cases: NCI tumour cell line growth inhibition, 48 h
PC-3 prostate = test system: PC-3 prostate
OVCAR-4 ovarian = test system: OVCAR-4 ovarian
HCT-15 colon = test system: HCT-15 colon
TK-10 renal = test system: TK-10 renal
MDA-MB-435 = test system: MDA-MB-435
SK-MEL-5 melanoma = test system: SK-MEL-5 melanoma
SF-295 CNS = test system: SF-295 CNS
MDA-MB-231 breast = test system: MDA-MB-231 breast
RPMI-8226 leukemia = test system: RPMI-8226 leukemia
HOP-62 NSCLC = test system: HOP-62 NSCLC
NCI-H23 lung = test system: NCI-H23 lung
NCI-H522 lung = test system: NCI-H522 lung
MALME-3M melanoma = test system: MALME-3M melanoma
SNB-75 CNS = test system: SNB-75 CNS
SK-OV-3 ovarian = test system: SK-OV-3 ovarian
SN12C renal = test system: SN12C renal
A498 renal = test system: A498 renal
MOLT-4 leukemia = test system: MOLT-4 leukemia
OVCAR-5 ovarian = test system: OVCAR-5 ovarian
NCI-H460 lung = test system: NCI-H460 lung
SK-MEL-2 melanoma = test system: SK-MEL-2 melanoma
M14 melanoma = test system: M14 melanoma
ACHN renal = test system: ACHN renal
IGROV1 ovarian = test system: IGROV1 ovarian
CAKI-1 renal = test system: CAKI-1 renal
CCRF-CEM leukemia = test system: CCRF-CEM leukemia
T-47D breast = test system: T-47D breast
K-562 leukemia = test system: K-562 leukemia
OVCAR-8 ovarian = test system: OVCAR-8 ovarian
OVCAR-3 ovarian = test system: OVCAR-3 ovarian
COLO 205 colon = test system: COLO 205 colon
HL-60(TB) leukemia = test system: HL-60(TB) leukemia
LOX IMVI melanoma = test system: LOX IMVI melanoma
RXF 393 renal = test system: RXF 393 renal
SK-MEL-28 melanoma = test system: SK-MEL-28 melanoma
UO-31 renal = test system: UO-31 renal
SF-268 CNS = test system: SF-268 CNS
MDA-N = test system: MDA-N
EKVX NSCLC = test system: EKVX NSCLC
HCC-2998 colon = test system: HCC-2998 colon
NCI/ADR-RES ovarian = test system: NCI/ADR-RES ovarian
HOP-92 NSCLC = test system: HOP-92 NSCLC
HS 578T breast = test system: HS 578T breast
UACC-257 melanoma = test system: UACC-257 melanoma
786-0 renal = test system: 786-0 renal
MCF7 breast = test system: MCF7 breast
SNB-19 CNS = test system: SNB-19 CNS
HT29 colon = test system: HT29 colon
KM12 colon = test system: KM12 colon
SW-620 colon = test system: SW-620 colon
DU-145 prostate = test system: DU-145 prostate
U251 CNS = test system: U251 CNS
UACC-62 melanoma = test system: UACC-62 melanoma
A549 NSCLC = test system: A549 NSCLC
SR leukemia = test system: SR leukemia
SF-539 CNS = test system: SF-539 CNS

CC1=C2C(=O)c3ccccc3C(=O)[C@H]2C[C@@H](N2CCCC2=O)O1
TGI (PC-3 prostate): > 100 µM
TGI (OVCAR-4 ovarian): 38.2 µM
TGI (HCT-15 colon): > 100 µM
TGI (TK-10 renal): > 100 µM
TGI (MDA-MB-435): 33.1 µM
TGI (SK-MEL-5 melanoma): 32.7 µM
TGI (SF-295 CNS): > 100 µM
TGI (MDA-MB-231 breast): > 100 µM
TGI (RPMI-8226 leukemia): 49.5 µM
TGI (HOP-62 NSCLC): > 100 µM
TGI (NCI-H23 lung): 57.1 µM
TGI (NCI-H522 lung): > 100 µM
TGI (MALME-3M melanoma): 31.8 µM
TGI (SNB-75 CNS): 61 µM
TGI (SK-OV-3 ovarian): > 100 µM
TGI (SN12C renal): > 100 µM
TGI (A498 renal): > 100 µM
TGI (MOLT-4 leukemia): > 100 µM
TGI (OVCAR-5 ovarian): 42.5 µM
TGI (NCI-H460 lung): > 100 µM
TGI (SK-MEL-2 melanoma): > 100 µM
TGI (M14 melanoma): 34.9 µM
TGI (ACHN renal): > 100 µM
TGI (IGROV1 ovarian): > 100 µM
TGI (CAKI-1 renal): > 100 µM
TGI (CCRF-CEM leukemia): 81.8 µM
TGI (T-47D breast): 53.5 µM
TGI (K-562 leukemia): > 100 µM
TGI (OVCAR-8 ovarian): > 100 µM
TGI (OVCAR-3 ovarian): 63.9 µM
TGI (COLO 205 colon): > 100 µM
TGI (HL-60(TB) leukemia): > 100 µM
TGI (LOX IMVI melanoma): 37.8 µM
TGI (RXF 393 renal): 45.3 µM
TGI (SK-MEL-28 melanoma): > 100 µM
TGI (UO-31 renal): > 100 µM
TGI (SF-268 CNS): > 100 µM
TGI (MDA-N): 30 µM
TGI (EKVX NSCLC): > 100 µM
TGI (HCC-2998 colon): > 100 µM
TGI (NCI/ADR-RES ovarian): 97 µM
TGI (HOP-92 NSCLC): 61.7 µM
TGI (HS 578T breast): > 100 µM
TGI (UACC-257 melanoma): > 100 µM
TGI (786-0 renal): 65.5 µM
TGI (MCF7 breast): 29.9 µM
TGI (SNB-19 CNS): > 100 µM
TGI (HT29 colon): > 100 µM
TGI (KM12 colon): > 100 µM
TGI (SW-620 colon): 66.9 µM
TGI (DU-145 prostate): 54.7 µM
TGI (U251 CNS): 76.4 µM
TGI (UACC-62 melanoma): > 100 µM
TGI (A549 NSCLC): > 100 µM
TGI (SR leukemia): 87.7 µM
TGI (SF-539 CNS): 49.1 µM
